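48-hour exposure; five concentrations; linearly interpolated endpoints. The concentration for 50% growth inhibition is given as GI50.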 Calls of active or inactive are those of the source. Cut-off read from the data, not from the text of the source: active = GI50 up to about 1.1 µM and inactive = higher.
Experiments:
Assay in all cases: NCI tumour cell line growth inhibition, 48 h
[1] = test system: SF-539
[2] = test system: KM-20L2
[3] = test system: K562
[4] = test system: UACC-62
[5] = test system: KM12
[6] = test system: A549
[7] = test system: Malme-3M
[8] = test system: M14
[9] = test system: PC-3
[10] = test system: SNB-19
[11] = test system: HCC 2998
[12] = test system: COLO 205
[13] = test system: HL-60
[14] = test system: SN12C
[15] = test system: TK-10
[16] = test system: UACC-257
[17] = test system: HT-29
[18] = test system: DLD-1
[19] = test system: OVCAR-8

Measured: GI50

Cc1cccc(C)c1NC(=O)C(C#N)C1=C(Cl)C(=O)c2ccccc2C1=O (stereo unspecified)
inactive: [1] 21.4 µM | [2] 24.1 µM | [3] 2.77 µM | [4] 16.1 µM | [5] 16.8 µM | [6] 19.7 µM | [7] 15.2 µM | [8] 10.1 µM | [9] 13.8 µM | [10] 16 µM | [11] 17.8 µM | [12] 6.35 µM | [13] 5.53 µM | [14] 17.4 µM | [15] 19.5 µM | [16] 13.9 µM | [17] 18.6 µM | [18] 8.15 µM | [19] 16.9 µM

O=C(CC(=O)N1N=C(n2ccc3ccccc32)CC1c1ccccc1)Nc1ccc(Cl)cc1 (stereo unspecified)
inactive: [1] 8.75 µM | [2] > 100 µM | [3] > 100 µM | [4] > 100 µM | [5] > 100 µM | [6] > 100 µM | [7] > 100 µM | [8] > 100 µM | [10] > 100 µM | [11] > 100 µM | [12] > 100 µM | [13] > 100 µM | [14] > 100 µM | [15] > 100 µM | [16] > 100 µM | [17] > 100 µM | [18] > 100 µM | [19] > 100 µM

CC1CCCC(C(=O)/C(=C/c2cccc(Cl)c2)C(=O)C(=O)O)C1 (stereo unspecified)
inactive: [1] 27.5 µM | [2] 25.9 µM | [3] 19.5 µM | [4] 36.9 µM | [5] 15.6 µM | [6] 60.7 µM | [7] > 100 µM | [8] 29.7 µM | [10] 33.8 µM | [11] 12.8 µM | [12] 37.3 µM | [13] 20 µM | [14] 72.1 µM | [15] > 100 µM | [16] 59.8 µM | [17] 18.4 µM | [18] 20 µM | [19] 20.3 µM

c1ccc(C2N=NN(c3ccccc3)C2N2CCCCC2)cc1 (stereo unspecified)
inactive: [1] 55.8 µM | [2] > 100 µM | [3] > 100 µM | [4] 67 µM | [5] > 100 µM | [6] > 100 µM | [7] > 100 µM | [8] > 100 µM | [10] > 100 µM | [11] > 100 µM | [12] > 100 µM | [13] > 100 µM | [14] > 100 µM | [15] > 100 µM | [16] > 100 µM | [17] > 100 µM | [18] > 100 µM | [19] > 10 µM

Cn1c(=O)c(C2c3ccccc3Oc3c2c(=O)n(C)c2ccccc32)c(O)c2ccccc21 (stereo unspecified)
inactive: [1] 76.2 µM | [2] 59 µM | [3] 51.2 µM | [4] 44.9 µM | [5] 69.8 µM | [6] 72.6 µM | [7] 73.5 µM | [8] 60 µM | [10] 44.4 µM | [11] 44.3 µM | [12] 30.6 µM | [13] 30.1 µM | [14] 46.7 µM | [15] 33.3 µM | [16] 24.1 µM | [17] 92.7 µM | [18] 50.9 µM | [19] > 100 µM
